Measurements from patent US20210378985A1, “METHOD AND COMPOUND FOR THE TREATMENT OF HEPATITIS C” (priority 2020, published 2021).

What was measured:
[1] = tested on: HCV subgenomic replicon; settings: at both mRNA and protein level; cited from earlier work
[2] = tested on: HIV-1; assay: Co-cultivation of HIV-1 infected cells with uninfected target cells; format: cell-based
Description: Viral pathogenesis in co-cultivation of infected cells with uninfected target cells presents a complex system with several target sites (attachment, fusion, transcription, processing, packaging and budding).
In many documented antiretroviral studies, the co-culture system is conventionally used to isolate the virus as well as to study cell-to-cell transmission or to determine if a given compound blocks cell fusion.

[3] = tested on: gamma interferon; assay: Gamma interferon production stimulated by 90I; format: cell-based; settings: versus positive control PMA-Ionomycin combination
[4] = tested on: HIV-1; assay: Cell-based time course study (mode of action); settings: drug addition at various time points
Description: The time course study may be an important tool for the determination of viral kinetics and drug mode of action. The dynamics of drug-virus interaction, competitive or non-competitive, kinetics provides a dose response curve from which a broad lead mechanism of action can be drawn. The dynamics of the interactions relate to the viral kinetic of infection and drug addition at various time points.

[5] = tested on: core protein in Huh 7 cells; settings: cited from earlier work

For `C[C@@H]1CC[C@@]2(OC1)O[C@H]1C[C@H]3[C@@H]4CC=C5C[C@@H](O)CC[C@]5(C)[C@H]4CC[C@]3(C)[C@H]1[C@@H]2C` [Diosgenin], the “replication of HCV subgenomic replicon” value [1] is listed as “effectively blocked the replication of the HCV subgenomic replicon”.

For `O=C(OCCOCCOC(=O)c1ccccc1)c1ccccc1` [Compound 90I, diethylene glycol dibenzoate], the syncytium formation [2] was “drastic drop of syncytium formation”, the cell viability ([2]; exponential cell growth dynamics) was “greater than ninety percent” and the “amount of gamma interferon produced” value [3] was “equivalent to that of the positive control”. For the same compound, the “mode of action (early/late)” value [4] was “works both early and late”.

In the case of `O=C1C[C@@H](c2ccc(O)cc2)Oc2cc(O)cc(O)c21` [Naringenin], the “activity of core protein” value ([5]; Huh 7 cells) is given as “suppressed the activity of core protein” and the “assembly of HCV particles” value [5] is given as “effectively blocked the assembly of HCV particles”.
